{"source": "paper PMC6886798", "about": "“Expression of myeloid Src-family kinases is associated with poor prognosis in AML and influences Flt3-ITD kinase inhibitor acquired resistance” (PLoS ONE, 2019)", "key": {"[1]": {"target": "T1, LYN (Homo sapiens, UniProt P07948)", "T1 construct": "purchased Eurofins/DiscoverX KINOMEscan scanMAX", "experiment": "KINOMEscan", "assay_type": "binding", "settings": "1.0 µM"}, "[2]": {"target": "T2, Hck T338F (Homo sapiens, UniProt P08631, T333F)", "T2 construct": "Recombinant near-full-length kinases, consisting of the SH2, SH3 and kinase domains plus the negative regulatory tail; made in house; host or cells: E. coli BL21Star (DE3), co-expressed with Csk and PTP1B", "T2 sequence (P08631 78-526 T333F limits assumed)": "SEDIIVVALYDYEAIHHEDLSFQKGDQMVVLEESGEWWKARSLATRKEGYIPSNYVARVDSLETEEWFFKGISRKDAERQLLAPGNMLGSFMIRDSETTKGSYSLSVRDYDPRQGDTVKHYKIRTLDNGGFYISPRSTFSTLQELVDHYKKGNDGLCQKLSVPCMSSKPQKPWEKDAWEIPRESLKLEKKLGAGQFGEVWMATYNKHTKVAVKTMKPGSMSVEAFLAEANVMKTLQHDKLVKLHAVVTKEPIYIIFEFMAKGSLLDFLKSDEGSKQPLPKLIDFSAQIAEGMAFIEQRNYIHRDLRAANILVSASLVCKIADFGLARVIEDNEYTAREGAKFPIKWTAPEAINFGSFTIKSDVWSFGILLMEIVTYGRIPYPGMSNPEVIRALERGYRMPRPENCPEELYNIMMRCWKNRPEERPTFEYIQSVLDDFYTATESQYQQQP", "experiment": "Z'-LYTE in vitro kinase assay", "assay_type": "biochemical"}, "[3]": {"target": "T3, Lyn T338M (Homo sapiens, UniProt P07948, T319M)", "T3 construct": "Recombinant near-full-length kinases, consisting of the SH2, SH3 and kinase domains plus the negative regulatory tail; made in house; host or cells: E. coli BL21Star (DE3), co-expressed with Csk and PTP1B", "T3 sequence (P07948 63-512 T319M limits assumed)": "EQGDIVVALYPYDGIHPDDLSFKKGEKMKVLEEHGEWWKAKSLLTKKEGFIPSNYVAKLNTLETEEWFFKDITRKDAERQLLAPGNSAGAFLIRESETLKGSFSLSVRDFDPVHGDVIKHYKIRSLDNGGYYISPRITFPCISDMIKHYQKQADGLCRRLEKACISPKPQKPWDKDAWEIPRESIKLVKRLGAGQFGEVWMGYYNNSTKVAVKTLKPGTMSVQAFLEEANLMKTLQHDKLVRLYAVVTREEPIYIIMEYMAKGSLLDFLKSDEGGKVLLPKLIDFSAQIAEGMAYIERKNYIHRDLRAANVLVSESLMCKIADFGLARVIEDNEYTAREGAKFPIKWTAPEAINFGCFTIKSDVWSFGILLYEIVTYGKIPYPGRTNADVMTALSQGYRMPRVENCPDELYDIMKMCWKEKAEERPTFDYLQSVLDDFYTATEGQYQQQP", "experiment": "Z'-LYTE in vitro kinase assay", "assay_type": "biochemical", "settings": "read-out: A-419259 IC50, Fig 5B, ATP at Km, mean ± SE, three independent determinations"}, "[4]": {"target": "T4, Fgr T338L (Homo sapiens, UniProt P09769, T334L)", "T4 construct": "Recombinant near-full-length kinases, consisting of the SH2, SH3 and kinase domains plus the negative regulatory tail; made in house; host or cells: E. coli BL21Star (DE3), co-expressed with Csk and PTP1B", "T4 sequence (P09769 77-529 T334L limits assumed)": "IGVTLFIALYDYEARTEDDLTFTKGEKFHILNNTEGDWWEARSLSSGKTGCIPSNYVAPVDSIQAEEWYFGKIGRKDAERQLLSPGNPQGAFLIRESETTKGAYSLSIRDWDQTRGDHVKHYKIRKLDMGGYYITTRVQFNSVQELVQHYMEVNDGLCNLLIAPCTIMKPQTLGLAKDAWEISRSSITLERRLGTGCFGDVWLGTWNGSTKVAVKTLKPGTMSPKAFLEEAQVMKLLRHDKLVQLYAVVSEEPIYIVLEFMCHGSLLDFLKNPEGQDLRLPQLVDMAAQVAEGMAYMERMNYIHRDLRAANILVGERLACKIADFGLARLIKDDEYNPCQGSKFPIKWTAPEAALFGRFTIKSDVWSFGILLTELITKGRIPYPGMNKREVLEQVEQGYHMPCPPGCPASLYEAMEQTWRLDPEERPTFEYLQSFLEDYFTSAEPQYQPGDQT", "experiment": "Z'-LYTE in vitro kinase assay", "assay_type": "biochemical", "settings": "read-out: A-419259 IC50, Fig 5B, ATP at Km, mean ± SE, three independent determinations", "experimental": "(§2) Assays were performed in quadruplicate in 384-well low volume, non-binding, black polystyrene microplates (Corning) according to the manufacturer’s instructions. Briefly, this assay measures phosphorylation of the Tyr2 peptide substrate which is tagged with coumarin and fluorescein on its N- and C-termini, respectively, to form a FRET pair. After the kinase reaction, a development step involves site-specific proteolytic cleavage of the unphosphorylated but not the phosphorylated peptide. […] Kinase reactions were run in 50 mM HEPES, pH 7.5, 10 mM MgCl2, 1 mM EGTA, and 0.01% BRIJ-35 (buffer supplied by the manufacturer). […] Following incubation for 1 h at ambient temperature, reactions were quenched by addition of the development protease, and coumarin and fluorescein fluorescence were measured 1 h later on a Molecular Devices SpectraMax M5 plate reader. […] For experiments with inhibitors, compounds were preincubated with kinase for 30 min prior to initiation of the reaction by the addition of ATP."}, "[5]": {"target": "T5, Flt3-D835Y kinase domain (Homo sapiens, UniProt P36888, D835Y)", "T5 construct": "Recombinant purified Flt3 wild-type, Flt3-ITD and Flt3-D835Y kinase domains were purchased from ThermoFisher; purchased ThermoFisher", "experiment": "Z'-LYTE in vitro kinase assay", "assay_type": "biochemical", "settings": "Flt3 D835Y mutant", "experimental": "as §2"}, "[6]": {"target": "T6, Hck T338L (Homo sapiens, UniProt P08631, T333L)", "T6 construct": "Recombinant near-full-length kinases, consisting of the SH2, SH3 and kinase domains plus the negative regulatory tail; made in house; host or cells: E. coli BL21Star (DE3), co-expressed with Csk and PTP1B", "T6 sequence (P08631 78-526 T333L limits assumed)": "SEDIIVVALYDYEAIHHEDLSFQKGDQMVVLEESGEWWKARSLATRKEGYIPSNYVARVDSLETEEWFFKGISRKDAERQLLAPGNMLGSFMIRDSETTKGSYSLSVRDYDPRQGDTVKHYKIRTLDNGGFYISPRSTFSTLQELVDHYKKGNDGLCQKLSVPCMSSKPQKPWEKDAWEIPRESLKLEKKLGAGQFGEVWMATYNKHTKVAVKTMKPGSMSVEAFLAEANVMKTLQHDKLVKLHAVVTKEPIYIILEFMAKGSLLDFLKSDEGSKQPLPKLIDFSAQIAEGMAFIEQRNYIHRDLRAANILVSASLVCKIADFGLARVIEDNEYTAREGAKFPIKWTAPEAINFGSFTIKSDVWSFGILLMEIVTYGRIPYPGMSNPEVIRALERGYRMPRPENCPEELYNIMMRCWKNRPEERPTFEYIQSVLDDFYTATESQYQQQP", "experiment": "Z'-LYTE in vitro kinase assay", "assay_type": "biochemical"}, "[7]": {"target": "T7, MELK (Homo sapiens, UniProt Q14680)", "T7 construct": "purchased Eurofins/DiscoverX KINOMEscan scanMAX", "experiment": "KINOMEscan", "assay_type": "binding", "settings": "1.0 µM", "procedure": "(§1) Kinase retention to the immobilized ligand is then measured using quantitative real-time PCR for each kinase-specific DNA barcode."}, "[8]": {"target": "T8, MEK6 (Homo sapiens, UniProt P52564)", "T8 construct": "purchased Eurofins/DiscoverX KINOMEscan scanMAX", "experiment": "KINOMEscan", "assay_type": "binding", "settings": "1.0 µM", "procedure": "as §1"}, "[9]": {"target": "T9, BRAF(V600E) (Homo sapiens, UniProt P15056, V600E)", "T9 construct": "purchased Eurofins/DiscoverX KINOMEscan scanMAX", "T9 sequence (P15056 whole entry V600E)": "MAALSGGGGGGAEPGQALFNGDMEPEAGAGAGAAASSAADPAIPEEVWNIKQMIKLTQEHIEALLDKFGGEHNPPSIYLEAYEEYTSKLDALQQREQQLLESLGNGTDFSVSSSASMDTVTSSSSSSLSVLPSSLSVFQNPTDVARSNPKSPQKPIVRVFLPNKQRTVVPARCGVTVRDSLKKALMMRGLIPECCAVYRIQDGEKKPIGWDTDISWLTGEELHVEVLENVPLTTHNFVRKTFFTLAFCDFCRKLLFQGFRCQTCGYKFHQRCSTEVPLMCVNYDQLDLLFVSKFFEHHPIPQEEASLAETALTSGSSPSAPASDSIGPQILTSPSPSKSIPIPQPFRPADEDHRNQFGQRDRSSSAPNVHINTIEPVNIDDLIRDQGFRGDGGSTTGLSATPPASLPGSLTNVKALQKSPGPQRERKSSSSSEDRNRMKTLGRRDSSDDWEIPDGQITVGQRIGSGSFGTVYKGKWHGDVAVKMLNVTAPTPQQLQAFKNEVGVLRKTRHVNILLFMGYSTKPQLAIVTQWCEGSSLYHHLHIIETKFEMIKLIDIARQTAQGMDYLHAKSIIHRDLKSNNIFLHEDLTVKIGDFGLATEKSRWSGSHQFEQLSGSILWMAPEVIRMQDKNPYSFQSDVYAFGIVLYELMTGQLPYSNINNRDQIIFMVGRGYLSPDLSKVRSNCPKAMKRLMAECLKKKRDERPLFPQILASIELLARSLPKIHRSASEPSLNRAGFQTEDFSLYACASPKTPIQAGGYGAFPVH", "experiment": "KINOMEscan", "assay_type": "binding", "settings": "1.0 µM", "procedure": "as §1"}, "[10]": {"target": "T10, ABL1(Y253F)-phosphorylated (Homo sapiens, UniProt P00519, Y253F)", "T10 construct": "purchased Eurofins/DiscoverX KINOMEscan scanMAX", "experiment": "KINOMEscan", "assay_type": "binding", "settings": "1.0 µM", "procedure": "as §1"}, "[11]": {"target": "T11, PYK2 (Homo sapiens, UniProt Q14289)", "T11 construct": "purchased Eurofins/DiscoverX KINOMEscan scanMAX", "experiment": "KINOMEscan", "assay_type": "binding", "settings": "1.0 µM", "procedure": "as §1"}, "[12]": {"target": "T12, TXK (Homo sapiens, UniProt P42681)", "T12 construct": "DNA tag (qPCR barcode); purchased Eurofins/DiscoverX KINOMEscan scanMAX", "experiment": "KINOMEscan", "assay_type": "binding", "settings": "1.0 µM", "procedure": "as §1"}, "[13]": {"target": "T13, JNK3 (Homo sapiens, UniProt P53779)", "T13 construct": "purchased Eurofins/DiscoverX KINOMEscan scanMAX", "experiment": "KINOMEscan", "assay_type": "binding", "settings": "1.0 µM", "procedure": "as §1"}, "[14]": {"target": "T14, MKNK2 (Homo sapiens, UniProt Q9HBH9)", "T14 construct": "purchased Eurofins/DiscoverX KINOMEscan scanMAX", "experiment": "KINOMEscan", "assay_type": "binding", "settings": "1.0 µM", "procedure": "as §1"}, "[15]": {"target": "T15, MERTK (Homo sapiens, UniProt Q12866)", "T15 construct": "purchased Eurofins/DiscoverX KINOMEscan scanMAX", "experiment": "KINOMEscan", "assay_type": "binding", "settings": "1.0 µM", "procedure": "as §1"}, "[16]": {"target": "T16, PRKD3 (Homo sapiens, UniProt O94806)", "T16 construct": "purchased Eurofins/DiscoverX KINOMEscan scanMAX", "experiment": "KINOMEscan", "assay_type": "binding", "settings": "1.0 µM", "procedure": "as §1"}, "[17]": {"target": "T17, MYLK (Homo sapiens, UniProt Q15746)", "T17 construct": "purchased Eurofins/DiscoverX KINOMEscan scanMAX", "experiment": "KINOMEscan", "assay_type": "binding", "settings": "1.0 µM", "procedure": "as §1"}, "[18]": {"target": "T18, GRK3 (Homo sapiens, UniProt P35626)", "T18 construct": "purchased Eurofins/DiscoverX KINOMEscan scanMAX", "experiment": "KINOMEscan", "assay_type": "binding", "settings": "1.0 µM", "procedure": "as §1"}, "[19]": {"target": "T19, ALK(C1156Y) (Homo sapiens, UniProt Q9UM73, C1156Y)", "T19 construct": "purchased Eurofins/DiscoverX KINOMEscan scanMAX", "T19 sequence (Q9UM73 19-1620 C1156Y)": "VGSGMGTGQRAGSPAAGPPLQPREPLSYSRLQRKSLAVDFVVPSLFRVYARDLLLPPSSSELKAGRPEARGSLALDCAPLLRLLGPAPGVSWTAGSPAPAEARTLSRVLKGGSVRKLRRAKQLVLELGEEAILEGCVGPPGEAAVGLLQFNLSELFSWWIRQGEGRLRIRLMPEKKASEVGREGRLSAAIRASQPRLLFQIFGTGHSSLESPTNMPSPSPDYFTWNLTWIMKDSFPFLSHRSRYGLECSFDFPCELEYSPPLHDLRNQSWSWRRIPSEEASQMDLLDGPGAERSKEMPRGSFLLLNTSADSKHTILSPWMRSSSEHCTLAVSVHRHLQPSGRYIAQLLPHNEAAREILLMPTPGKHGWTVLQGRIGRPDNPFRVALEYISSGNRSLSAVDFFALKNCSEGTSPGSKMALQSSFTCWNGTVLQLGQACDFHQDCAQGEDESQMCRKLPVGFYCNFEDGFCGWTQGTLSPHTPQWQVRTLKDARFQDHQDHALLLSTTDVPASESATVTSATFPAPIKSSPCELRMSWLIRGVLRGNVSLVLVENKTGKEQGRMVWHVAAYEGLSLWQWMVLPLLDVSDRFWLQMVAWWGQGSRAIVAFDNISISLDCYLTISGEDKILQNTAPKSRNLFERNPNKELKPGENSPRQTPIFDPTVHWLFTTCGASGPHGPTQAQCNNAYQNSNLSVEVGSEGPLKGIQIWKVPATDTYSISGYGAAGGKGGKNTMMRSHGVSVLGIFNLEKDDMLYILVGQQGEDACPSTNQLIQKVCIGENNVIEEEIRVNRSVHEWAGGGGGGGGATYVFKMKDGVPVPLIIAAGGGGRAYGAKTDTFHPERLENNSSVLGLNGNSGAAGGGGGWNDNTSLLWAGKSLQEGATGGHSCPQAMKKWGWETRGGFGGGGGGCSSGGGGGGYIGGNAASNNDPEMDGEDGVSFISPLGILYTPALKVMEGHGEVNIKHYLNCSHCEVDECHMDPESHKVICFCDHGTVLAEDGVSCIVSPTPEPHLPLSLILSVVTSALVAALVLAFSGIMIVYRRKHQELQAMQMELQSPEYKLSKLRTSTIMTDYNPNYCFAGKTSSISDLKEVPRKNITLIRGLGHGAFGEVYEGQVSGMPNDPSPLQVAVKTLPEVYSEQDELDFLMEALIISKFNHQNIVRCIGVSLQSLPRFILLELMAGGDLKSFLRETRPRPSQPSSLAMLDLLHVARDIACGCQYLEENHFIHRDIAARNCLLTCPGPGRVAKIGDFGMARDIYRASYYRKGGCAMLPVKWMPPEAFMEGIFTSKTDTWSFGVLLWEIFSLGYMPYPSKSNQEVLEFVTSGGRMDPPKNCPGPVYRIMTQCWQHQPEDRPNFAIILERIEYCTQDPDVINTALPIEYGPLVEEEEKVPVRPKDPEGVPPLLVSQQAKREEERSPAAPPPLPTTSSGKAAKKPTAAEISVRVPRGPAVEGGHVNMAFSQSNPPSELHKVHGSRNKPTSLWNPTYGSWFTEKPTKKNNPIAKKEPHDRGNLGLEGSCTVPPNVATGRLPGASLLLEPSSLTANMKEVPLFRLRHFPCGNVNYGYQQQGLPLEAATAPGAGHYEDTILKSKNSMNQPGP", "experiment": "KINOMEscan", "assay_type": "binding", "settings": "1.0 µM", "procedure": "as §1"}, "[20]": {"target": "T20, HIPK3 (Homo sapiens, UniProt Q9H422)", "T20 construct": "purchased Eurofins/DiscoverX KINOMEscan scanMAX", "experiment": "KINOMEscan", "assay_type": "binding", "settings": "1.0 µM", "procedure": "as §1"}, "[21]": {"target": "T21, CDK8 (Homo sapiens, UniProt P49336)", "T21 construct": "purchased Eurofins/DiscoverX KINOMEscan scanMAX", "experiment": "KINOMEscan", "assay_type": "binding", "settings": "1.0 µM", "procedure": "as §1"}}, "data": [{"smiles": "CN1CCN(C2CCC(n3cc(-c4ccc(Oc5ccccc5)cc4)c4c(N)ncnc43)CC2)CC1", "note": "(centres unmarked) [A-419259]", "values": [{"measurement": "% Control", "setting": "[1]", "result": 1.7, "unit": "%"}, {"measurement": "reduction of kinase sensitivity to A-419259", "setting": "[2]; Hck gatekeeper threonine to phenylalanine, vs wild-type", "result": "~5", "unit": "fold"}, {"measurement": "IC50", "setting": "[2]; read-out: A-419259 IC50, Fig 5B, Hck T338F, ATP at Km, mean ± SE, three independent determinations", "result": "0.201 ± 0.001", "unit": "µM"}, {"measurement": "IC50", "setting": "[3]", "result": "0.1278 ± 0.001", "unit": "µM"}, {"measurement": "IC50", "setting": "[4]", "result": "0.2184 ± 0.0011", "unit": "µM"}, {"measurement": "resistance to A-419259 in in vitro kinase assays", "setting": "[5]", "result": "about 6 fold"}, {"measurement": "effect of substitution on kinase sensitivity to A-419259", "setting": "[6]; Hck gatekeeper threonine to leucine, vs wild-type", "result": "without an effect"}, {"measurement": "IC50", "setting": "[6]; read-out: A-419259 IC50, Fig 5B, Hck T338L, ATP at Km, mean ± SE, three independent determinations", "result": "0.041 ± 0.001", "unit": "µM"}, {"measurement": "% Control", "setting": "[7]", "result": 21, "unit": "%"}, {"measurement": "% Control", "setting": "[8]", "result": 98, "unit": "%"}, {"measurement": "% Control", "setting": "[9]", "result": 45, "unit": "%"}, {"measurement": "% Control", "setting": "[10]", "result": 0.35, "unit": "%"}, {"measurement": "% Control", "setting": "[11]", "result": 88, "unit": "%"}, {"measurement": "% Control", "setting": "[12]", "result": 13, "unit": "%"}, {"measurement": "% Control", "setting": "[13]", "result": 99, "unit": "%"}, {"measurement": "% Control", "setting": "[14]", "result": 8.3, "unit": "%"}, {"measurement": "% Control", "setting": "[15]", "result": 12, "unit": "%"}, {"measurement": "% Control", "setting": "[16]", "result": 17, "unit": "%"}, {"measurement": "% Control", "setting": "[17]", "result": 94, "unit": "%"}, {"measurement": "% Control", "setting": "[18]", "result": 100, "unit": "%"}, {"measurement": "% Control", "setting": "[19]", "result": 21, "unit": "%"}, {"measurement": "% Control", "setting": "[20]", "result": 91, "unit": "%"}, {"measurement": "% Control", "setting": "[21]", "result": 28, "unit": "%"}]}]}
